Measured values reported in patent US11866431B2, “Bicyclic compounds” (Vivace Therapeutics, Inc., priority 2018, dated 2024).

test system: 8XTBD luciferase reporter (YAP reporter) in HEK293T cells; experiment: YAP Reporter Assay; type: cell-based; details: Homo sapiens, HEK-293T; HEK293T cells stably transfected with 8XTBD luciferase reporter and pRLTK; 24-hr incubation; top concentration 3 μM; read-out: Firefly Luciferase IC50
Summary of the method: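 Dual-luciferase read-out after 24 h compound exposure at 37° C, 5% CO2; IC50 and maximum inhibition given separately for 8XTBD-firefly and TK-renilla signals. Stable HEK293T reporter cells, 3×10^3/well, received 10-point 1:3 series starting 3 μM final, in quadruplicate.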

How did the IC50 turn out when `COC[C@H](C)NC(=O)c1ccc2c(-c3ccc(C(F)(F)F)cc3)cccc2c1` [Compound 89, (S)—N-(1-methoxypropan-2-yl)-5-(4-(trifluoromethyl)phenyl)-2-naphthamide] was run?
Its IC50 is < 100 nM.

How did the IC50 turn out when `C[C@H](NC(=O)c1ccc2c(-c3ccc(C(F)(F)F)cc3)cccc2c1)c1ccccn1` [Compound 90, (S)—N-(1-(pyridin-2-yl)ethyl)-5-(4-(trifluoromethyl)phenyl)-2-naphthamide] was run?
The IC50 was < 100 nM.

Which IC50 does the source give for `C[C@@H](NC(=O)c1ccc2c(-c3ccc(C(F)(F)F)cc3)cccc2c1)c1ccccn1` [Compound 91, (R)—N-(1-(pyridin-2-yl)ethyl)-5-(4-(trifluoromethyl)phenyl)-2-naphthamide] here?
Its IC50 is 100 to 1000 nM.

`CNCC(C)NC(=O)c1ccc2c(-c3ccc(C(F)(F)F)cc3)cccc2c1` (stereo not drawn) [Compound 92, N-(1-(methylamino)propan-2-yl)-5-(4-(trifluoromethyl)phenyl)-2-naphthamide] was tested. Which IC50 did it give?
The IC50 was 100 to 1000 nM.

Which IC50 does the source give for `COC[C@@H](C)NC(=O)c1ccc2c(-c3ccc(C(F)(F)F)cc3)cccc2c1` [Compound 93, (R)—N-(1-methoxypropan-2-yl)-5-(4-(trifluoromethyl)phenyl)-2-naphthamide] here?
Its IC50 is < 100 nM.

With `CC(C)NC(=O)c1cnc2c(-c3ccc(C(F)(F)F)cc3)cc(Cl)c(Cl)c2c1` [Compound 94, 5,6-Dichloro-N-isopropyl-8-(4-(trifluoromethyl)phenyl)quinoline-3-carboxamide] as the compound, how does the IC50 read?
The IC50 was < 100 nM.

Which IC50 does the source give for `CC(C)NC(=O)c1ccc2c(-c3ccc(C(F)(F)F)cc3)cc(N)c(O)c2c1` [Compound 95, 7-amino-8-hydroxy-N-isopropyl-5-(4-(trifluoromethyl)phenyl)-2-naphthamide] here?
Its IC50 is 100 to 1000 nM.

How did the IC50 turn out when `CS(=O)(=O)NC(=O)c1cnc2c(-c3ccc(C(F)(F)F)cc3)cc(Cl)c(Cl)c2c1` [Compound 96, 5,6-dichloro-N-(methylsulfonyl)-8-(4-(trifluoromethyl)phenyl)quinoline-3-carboxamide] was run?
The IC50 was 100 to 1000 nM.

With `COc1cc(-c2ccc(C(F)(F)F)cc2)c2ncc(C(=O)NC(C)C)cc2c1` [Compound 97, N-isopropyl-6-methoxy-8-[4-(trifluoromethyl)phenyl]quinoline-3-carboxamide] as the compound, how does the IC50 read?
The IC50 was < 100 nM.

For `COc1cc(-c2ccc(C(F)(F)F)cc2)c2ncc(C(=O)N[C@H](C)CO)cc2c1` [Compound 98, N-[(1R)-2-hydroxy-1-methyl-ethyl]-6-methoxy-8-[4-(trifluoromethyl)phenyl]quinoline-3-carboxamide], which IC50 is on record?
Its IC50 is < 100 nM.

How did the IC50 turn out when `C[C@H](CO)NC(=O)c1cnc2c(-c3ccc(C(F)(F)F)cc3)cccc2c1` [Compound 99, (R)—N-(1-hydroxypropan-2-yl)-8-(4-(trifluoromethyl)phenyl)quinoline-3-carboxamide] was run?
Its IC50 is < 100 nM.

`COC[C@@H](C)NC(=O)c1cnc2c(-c3ccc(C(F)(F)F)cc3)cccc2c1` [Compound 100, (R)—N-(1-methoxypropan-2-yl)-8-(4-(trifluoromethyl)phenyl)quinoline-3-carboxamide] was tested. Which IC50 did it give?
Its IC50 is 100 to 1000 nM.

With `C[C@@H](NC(=O)c1cnc2c(-c3ccc(C(F)(F)F)cc3)cccc2c1)c1ccccn1` [Compound 101, (R)—N-(1-(pyridin-2-yl)ethyl)-8-(4-(trifluoromethyl)phenyl)quinoline-3-carboxamide] as the compound, how does the IC50 read?
The IC50 was 100 to 1000 nM.

Which IC50 does the source give for `COC[C@H](C)NC(=O)c1cnc2c(-c3ccc(C(F)(F)F)cc3)cccc2c1` [Compound 102, (S)—N-(1-methoxypropan-2-yl)-8-(4-(trifluoromethyl)phenyl)quinoline-3-carboxamide] here?
Its IC50 is < 100 nM.

How did the IC50 turn out when `C[C@H](NC(=O)c1cnc2c(-c3ccc(C(F)(F)F)cc3)cccc2c1)c1ccccn1` [Compound 103, (S)—N-(1-(pyridin-2-yl)ethyl)-8-(4-(trifluoromethyl)phenyl)quinoline-3-carboxamide] was run?
Its IC50 is < 100 nM.

For `CC(C)NC(=O)c1cnc2c(-c3ccc(C(F)(F)F)cc3)cc(OC(F)(F)F)cc2c1` [Compound 104, N-isopropyl-6-(trifluoromethoxy)-8-[4-(trifluoromethyl)phenyl]quinoline-3-carboxamide], which IC50 is on record?
Its IC50 is < 100 nM.

`COc1cc(-c2ccc(C(F)(F)F)cc2)c2ncc(C(=O)NC(CO)c3ccccn3)cc2c1` (stereo not drawn) [Compound 105, N-[2-hydroxy-1-(2-pyridyl)ethyl]-6-methoxy-8-[4-(trifluoromethyl)phenyl]quinoline-3-carboxamide] was tested. Which IC50 did it give?
Its IC50 is < 100 nM.

`COc1cc(-c2ccc(C(F)(F)F)cc2)c2ncc(C(=O)N[C@H](C)c3ccccn3)cc2c1` [Compound 106, 6-methoxy-N-[(1R)-1-(2-pyridyl)ethyl]-8-[4-(trifluoromethyl)phenyl]quinoline-3-carboxamide] was tested. Which IC50 did it give?
The IC50 was 100 to 1000 nM.

How did the IC50 turn out when `COC[C@@H](C)NC(=O)c1cnc2c(-c3ccc(C(F)(F)F)cc3)cc(OC)cc2c1` [Compound 107, 6-methoxy-N-[(1R)-2-methoxy-1-methyl-ethyl]-8-[4-(trifluoromethyl)phenyl]quinoline-3-carboxamide] was run?
Its IC50 is < 100 nM.

For `COc1cc(-c2ccc(C(F)(F)F)cc2)c2ncc(C(=O)N[C@@H](C)c3ccccn3)cc2c1` [Compound 108, 6-methoxy-N-[(1S)-1-(2-pyridyl)ethyl]-8-[4-(trifluoromethyl)phenyl]quinoline-3-carboxamide], which IC50 is on record?
Its IC50 is < 100 nM.

For `COC[C@H](C)NC(=O)c1cnc2c(-c3ccc(C(F)(F)F)cc3)cc(OC)cc2c1` [Compound 109, 6-methoxy-N-[(1S)-2-methoxy-1-methyl-ethyl]-8-[4-(trifluoromethyl)phenyl]quinoline-3-carboxamide], which IC50 is on record?
The IC50 was < 100 nM.

How did the IC50 turn out when `O=C(NC(CO)c1ccccn1)c1ccc2c(-c3ccc(C(F)(F)F)cc3)cccc2c1` (stereo not drawn) [Compound 110, N-(2-hydroxy-1-(pyridin-2-yl)ethyl)-5-(4-(trifluoromethyl)phenyl)-2-naphthamide] was run?
The IC50 was < 100 nM.

`C#CCNC(=O)c1ccc2c(-c3ccc(C(F)(F)F)cc3)cccc2c1` [Compound 111, N-(prop-2-yn-1-yl)-5-(4-(trifluoromethyl)phenyl)-2-naphthamide] was tested. Which IC50 did it give?
Its IC50 is < 100 nM.

Which IC50 does the source give for `C#CCCNC(=O)c1ccc2c(-c3ccc(C(F)(F)F)cc3)cccc2c1` [Compound 112, N-(but-3-yn-1-yl)-5-(4-(trifluoromethyl)phenyl)-2-naphthamide] here?
The IC50 was < 100 nM.

`N#CCNC(=O)c1ccc2c(-c3ccc(C(F)(F)F)cc3)cccc2c1` [Compound 113, N-(cyanomethyl)-5-(4-(trifluoromethyl)phenyl)-2-naphthamide] was tested. Which IC50 did it give?
The IC50 was < 100 nM.

With `N#CCCNC(=O)c1ccc2c(-c3ccc(C(F)(F)F)cc3)cccc2c1` [Compound 114, N-(2-cyanoethyl)-5-(4-(trifluoromethyl)phenyl)-2-naphthamide] as the compound, how does the IC50 read?
The IC50 was < 100 nM.

With `O=C(NCCSSCCNC(=O)c1ccc2c(-c3ccc(C(F)(F)F)cc3)cccc2c1)c1ccc2c(-c3ccc(C(F)(F)F)cc3)cccc2c1` [Compound 115, N,N′-(disulfanediylbis(ethane-2,1-diyl))bis(5-(4-(trifluoromethyl)phenyl)-2-naphthamide)] as the compound, how does the IC50 read?
The IC50 was 1000 to 3000 nM.

`CC(C)NC(=O)c1cnc2c(-c3ccc(C(F)(F)F)cc3)cc(OC3CC3)cc2c1` [Compound 116, 6-cyclopropoxy-N-isopropyl-8-(4-(trifluoromethyl)phenyl)quinoline-3-carboxamide] was tested. Which IC50 did it give?
The IC50 was < 100 nM.

`O=C(NC1(c2ccccc2)CC1)c1ccc2c(-c3ccc(C(F)(F)F)cc3)cccc2c1` [Compound 121, N-(1-phenylcyclopropyl)-5-[4-(trifluoromethyl)phenyl]naphthalene-2-carboxamide] was tested. Which IC50 did it give?
The IC50 was < 100 nM.

With `CS(=O)(=O)NC(=O)c1cnc2c(-c3ccc(C(F)(F)F)cc3)cc(OC3CC3)cc2c1` [Compound 122, 6-cyclopropoxy-N-(methylsulfonyl)-8-(4-(trifluoromethyl)phenyl)quinoline-3-carboxamide] as the compound, how does the IC50 read?
Its IC50 is 100 to 1000 nM.

With `CS(=O)(=O)NC(=O)c1cnc2c(-c3ccc(C(F)(F)F)cc3)cc(OC(F)(F)F)cc2c1` [Compound 123, N-(methylsulfonyl)-6-(trifluoromethoxy)-8-(4-(trifluoromethyl)phenyl)quinoline-3-carboxamide] as the compound, how does the IC50 read?
Its IC50 is 1000 to 3000 nM.

With `CNCCNC(=O)c1ccc2c(-c3ccc(C(F)(F)F)cc3)cccc2c1` [Compound 124, N-(2-(methylamino)ethyl)-5-(4-(trifluoromethyl)phenyl)-2-naphthamide] as the compound, how does the IC50 read?
Its IC50 is 100 to 1000 nM.

For `CN(C#N)CCNC(=O)c1ccc2c(-c3ccc(C(F)(F)F)cc3)cccc2c1` [Compound 125, N-(2-(N-methylcyanamido)ethyl)-5-(4-(trifluoromethyl)phenyl)-2-naphthamide], which IC50 is on record?
The IC50 was < 100 nM.

`CNCCCNC(=O)c1ccc2c(-c3ccc(C(F)(F)F)cc3)cccc2c1` [Compound 126, N-(3-(methylamino)propyl)-5-(4-(trifluoromethyl)phenyl)-2-naphthamide] was tested. Which IC50 did it give?
Its IC50 is 100 to 1000 nM.

`CN(C#N)CCCNC(=O)c1ccc2c(-c3ccc(C(F)(F)F)cc3)cccc2c1` [Compound 127, N-(3-(N-methylcyanamido)propyl)-5-(4-(trifluoromethyl)phenyl)-2-naphthamide] was tested. Which IC50 did it give?
Its IC50 is 100 to 1000 nM.

For `C[C@H](NC(=O)c1ccc2c(-c3ccc(C(F)(F)F)cc3)cccc2c1)c1cccc(N)n1` [Compound 128, (S)—N-(1-(6-aminopyridin-2-yl)ethyl)-5-(4-(trifluoromethyl)phenyl)-2-naphthamide], which IC50 is on record?
The IC50 was 100 to 1000 nM.

For `C[C@@H](NC(=O)c1ccc2c(-c3ccc(C(F)(F)F)cc3)cccc2c1)c1cccc(N)n1` [Compound 129, (R)—N-(1-(6-aminopyridin-2-yl)ethyl)-5-(4-(trifluoromethyl)phenyl)-2-naphthamide], which IC50 is on record?
The IC50 was < 100 nM.

With `O=C(N[C@H](CO)C1CNC1)c1ccc2c(-c3ccc(C(F)(F)F)cc3)cccc2c1` [Compound 130, N-[(1S)-1-(azetidin-3-yl)-2-hydroxy-ethyl]-5-[4-(trifluoromethyl)phenyl]naphthalene-2-carboxamide] as the compound, how does the IC50 read?
The IC50 was 1000 to 3000 nM.

With `C[C@@H](NC(=O)c1ccc2c(-c3ccc(C(F)(F)F)cc3)cccc2c1)C1CN(CCO)C1` [Compound 133, (R)—N-(1-(1-(2-hydroxyethyl)azetidin-3-yl)ethyl)-5-(4-(trifluoromethyl)phenyl)-2-naphthamide] as the compound, how does the IC50 read?
The IC50 was 100 to 1000 nM.
